Source: patent publication US20170107203A1, “HETEROCYCLIC INHIBITORS OF THE SODIUM CHANNEL” (EPIRUS BIOPHARMACEUTICALS, INC., priority 2014, published 2017)

Assays:
male Sprague-Dawley rat = test: Formalin test in rats (automated flinch detection); assay type: in vivo; details: 100 mg/kg SC 1 hour prior to formalin
Description: The formalin test in rats was performed as previously described (McNamara, 2007. Proc. Natl. Acad. Sci., vol 104, page 13525) using an automated flinch-detecting system (T. Yaksh, University of California at San Diego, La Jolla, Calif.). On the day of testing, a small metal band (0.5 g) was loosely placed around the right hind paw of a male Sprague-Dawley rat (average weight, ˜250 g). The rats were allowed to acclimate to a Plexiglas chamber for at least 30 min before testing. Formalin was then injected (50 μl of 2.5% formalin, diluted in saline) into the dorsal surface of the right hind paw of the rat, and the animal was put into a chamber of the automated formalin apparatus where movement of the formalin-injected paw was recorded. The number of paw flinches per minute was tallied for the next 60 minutes. The time interval phases were defined as follows: Phase I (0-9 mins), Phase II (10-60 mins), Phase IIA (10-40 mins), and Phase IIB (41-60 mins). The following compounds were administered 1 hour prior to formalin administration. Compound 52 from Table 1 was administered by oral gavage in 4% DMSO, 10% Solutol, 86% H2O. Gabapentin was administered subcutaneously in 0.9% NaCl (aq).

human Nav1.7 = target: T1, human Nav1.7 (Homo sapiens, UniProt Q15858); test: Assessment of Nav1.7 activity on PatchXpress (voltage dependence / slow inactivation parameters); assay type: cell-based; details: compound at 10 μM, relative to 0.2% DMSO vehicle control; for hNav1.7: Reduction in current at 20 mV (normalized data) Delta Ratio: before/after 30 sec conditioning pulse at 20 mV; for hNav1.7: Shift in voltage dependence of inactivation (mV) Delta Vhalf: PatchXpress
T1 construct: expressed in transfected cells
T1 sequence (Q15858 whole entry): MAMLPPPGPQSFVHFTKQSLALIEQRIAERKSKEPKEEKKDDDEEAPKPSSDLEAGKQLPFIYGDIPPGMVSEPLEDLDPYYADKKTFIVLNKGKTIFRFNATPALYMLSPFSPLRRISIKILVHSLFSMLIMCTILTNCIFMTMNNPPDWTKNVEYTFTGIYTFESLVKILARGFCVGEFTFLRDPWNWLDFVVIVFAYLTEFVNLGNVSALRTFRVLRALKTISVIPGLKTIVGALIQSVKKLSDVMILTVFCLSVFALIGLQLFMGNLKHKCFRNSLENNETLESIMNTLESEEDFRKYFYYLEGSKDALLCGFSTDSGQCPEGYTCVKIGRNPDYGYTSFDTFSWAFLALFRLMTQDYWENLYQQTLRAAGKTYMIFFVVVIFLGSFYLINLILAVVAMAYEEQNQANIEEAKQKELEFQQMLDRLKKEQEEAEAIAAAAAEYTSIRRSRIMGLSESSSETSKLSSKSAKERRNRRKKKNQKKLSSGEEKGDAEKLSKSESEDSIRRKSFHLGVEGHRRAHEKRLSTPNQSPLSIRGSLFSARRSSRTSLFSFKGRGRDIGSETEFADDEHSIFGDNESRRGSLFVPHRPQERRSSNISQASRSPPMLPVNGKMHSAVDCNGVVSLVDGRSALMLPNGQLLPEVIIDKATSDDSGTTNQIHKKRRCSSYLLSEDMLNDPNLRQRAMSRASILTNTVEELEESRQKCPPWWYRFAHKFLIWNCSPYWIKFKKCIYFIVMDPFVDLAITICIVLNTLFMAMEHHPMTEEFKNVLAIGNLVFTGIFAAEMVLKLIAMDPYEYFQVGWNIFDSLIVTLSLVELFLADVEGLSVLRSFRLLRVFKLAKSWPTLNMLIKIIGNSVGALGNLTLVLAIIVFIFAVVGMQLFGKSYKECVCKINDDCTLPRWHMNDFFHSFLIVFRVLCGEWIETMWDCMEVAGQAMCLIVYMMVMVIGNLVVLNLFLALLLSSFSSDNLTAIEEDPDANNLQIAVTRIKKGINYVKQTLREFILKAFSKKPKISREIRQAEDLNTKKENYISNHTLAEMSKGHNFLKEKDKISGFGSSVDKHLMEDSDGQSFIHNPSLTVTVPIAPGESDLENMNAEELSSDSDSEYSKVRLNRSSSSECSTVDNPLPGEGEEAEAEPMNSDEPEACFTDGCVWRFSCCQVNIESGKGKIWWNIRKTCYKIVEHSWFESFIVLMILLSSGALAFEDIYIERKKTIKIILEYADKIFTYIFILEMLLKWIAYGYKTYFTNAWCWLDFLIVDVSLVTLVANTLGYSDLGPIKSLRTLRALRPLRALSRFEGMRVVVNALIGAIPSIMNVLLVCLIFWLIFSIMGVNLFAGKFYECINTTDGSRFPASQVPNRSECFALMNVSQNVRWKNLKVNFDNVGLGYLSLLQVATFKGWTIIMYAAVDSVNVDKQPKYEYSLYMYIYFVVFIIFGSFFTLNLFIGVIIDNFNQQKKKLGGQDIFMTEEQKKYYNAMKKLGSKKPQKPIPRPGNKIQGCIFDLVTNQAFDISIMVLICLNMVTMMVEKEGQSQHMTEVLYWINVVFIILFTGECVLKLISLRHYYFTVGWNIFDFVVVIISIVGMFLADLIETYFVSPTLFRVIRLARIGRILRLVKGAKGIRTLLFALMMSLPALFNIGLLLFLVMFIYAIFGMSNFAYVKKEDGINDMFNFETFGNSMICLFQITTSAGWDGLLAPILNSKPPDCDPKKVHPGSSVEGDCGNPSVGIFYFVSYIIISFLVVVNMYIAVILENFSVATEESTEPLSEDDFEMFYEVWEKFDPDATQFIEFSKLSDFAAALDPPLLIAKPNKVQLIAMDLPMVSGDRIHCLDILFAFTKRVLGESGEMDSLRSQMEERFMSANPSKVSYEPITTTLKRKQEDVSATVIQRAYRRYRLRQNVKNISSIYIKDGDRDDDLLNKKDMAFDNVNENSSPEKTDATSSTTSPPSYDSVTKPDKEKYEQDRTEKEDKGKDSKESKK
T1 sequence (Q07699 19-218 partner): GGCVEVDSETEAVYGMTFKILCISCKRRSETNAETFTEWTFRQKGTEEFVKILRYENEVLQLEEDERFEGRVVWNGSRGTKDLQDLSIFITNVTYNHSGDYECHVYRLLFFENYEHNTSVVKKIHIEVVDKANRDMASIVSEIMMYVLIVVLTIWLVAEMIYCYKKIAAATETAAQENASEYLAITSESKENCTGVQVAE
Summary of the method: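 HEK293F cells stably co-expressing hNav1.7 and β1 were recorded by automated patch clamp in TEA-based external solution (50 mM NaCl, pH 7.4) with CsF internal solution (pH 7.2). A variable conditioning prepulse inactivated channels, followed by a brief hyperpolarizing step and a depolarizing test pulse. Compounds at 10 μM were compared with 0.2% DMSO vehicle across four parameters.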

hNav1.7 [1] = target: T2, hNav1.7 (Homo sapiens, UniProt Q15858); test: Nav1.7 potency, manual patch clamp; assay type: cell-based; details: manual patchclamp
T2 construct: expressed in transfected cells
T2 sequence (Q15858 whole entry): as the sequence (Q15858 whole entry) above
T2 sequence (Q07699 19-218 partner): as the sequence (Q07699 19-218 partner) above
Description: (§1) The generation of a HEK 293F cell line stably expressing human Nav1.7/Navp1 was achieved by co-transfecting human SCN9A and human SCN1B cDNAs, subcloned into plasmid vectors, utilizing standard transfection techniques. Clones were selected using appropriate selection agents (0.3 mg/mL Zeocin and 0.8 mg/mL Geneticin) and maintained in Dulbecco's Modified Eagle medium, 10% fetal bovine serum, 1% non-essential amino acids to ˜80% confluence at 37° C. in a humidified incubator with 95% atmosphere and 5% CO2.
(§2) In some cases, the potency of compounds was measured using either the Patchliner automated patch clamp platform (Nanion) or manual patch clamp techniques. Both approaches allowed the compounds to be characterized based upon the ability of a compound to modulate use- and/or state-dependence. The potency data is tabulated in Table 3 and is represented by eight data fields. The first four fields represent potency data measured with the Patchliner automated platform under varying use- and state-dependent electrophysiology protocols similar to the Patch express protocols detailed above. The first data column describes the potency of compounds when the Nav1.7 channel is being repetitively activated at a 7 Hz hyperpolarization frequency (Table 3: hNav1.7: IC50 of inward current block at 7 Hz, Automated patchclamp). The second data column represents the potency at which 50% of the initial hyperpolarization pulse is inhibited by the compounds (Table 3: hNav1.7: IC50 of P1 block, Automated patchclamp). The third data column details the potency of compounds in their ability to block 50% of Nav1.7 channels when these channels are induced into the slow inactivated state (Table 3: hNav1.7: IC50 of slow inactivation block, Automated patchclamp). […] The next three data fields describe the data generated from manual patchclamp electrophysiology measurements using similar methods to those employed for automated patchclamp studies. […] The last column characterizes the state-dependence of compound inhibition. Compounds that maintain the greatest potency for the slow inactivated state over fast inactivated or tonic inhibition at 0.25 Hz are characterized as “state dependent, blocker of slow inactivation”.

hNav1.7 [2] = target: T2, hNav1.7; test: Nav1.7 potency, Patchliner automated patch clamp; assay type: cell-based; details: automated patchclamp
Description: as §1, §2

[3] = slow inactivated state, read-out: Nav1.7 IC50 SLOW INACTIVATION BLOCK (nM) (Manual Patchclamp)
[4] = initial pulse (P1), read-out: Nav1.7 IC50 P1 BLOCK (nM) (Automated Patchclamp)
[5] = slow inactivated state, read-out: Nav1.7 IC50 SLOW INACTIVATION BLOCK (nM) (Automated Patchclamp)

Structure (SMILES) | Phase 1 (paw flinches) (male Sprague-Dawley rat; Phase I (0-9 mins)) | Total Phase 2 (paw flinches) (male Sprague-Dawley rat; Phase II (10-60 mins)) | Phase 2a (paw flinches) (male Sprague-Dawley rat; Phase IIA (10-40 mins)) | Phase 2b (paw flinches) (male Sprague-Dawley rat; Phase IIB (41-60 mins)) | hNav1.7: Reduction in current at 20 mV (normalized data) Delta Ratio (human Nav1.7) | hNav1.7: Voltage dependence of activation (mV) VDEP (human Nav1.7) [mV] | hNav1.7: Voltage dependence of fast inactivation (mV) VDEP (human Nav1.7) [mV] | hNav1.7: Shift in voltage dependence of inactivation (mV) Delta Vhalf (human Nav1.7) [mV] | IC50 (hNav1.7 [1]; [3]) [nM] | IC50 (hNav1.7 [2]; [4]) [nM] | IC50 (hNav1.7 [2]; [5]) [nM] | IC50 (hNav1.7 [1]; 7 Hz, read-out: Nav1.7 IC50 INWARD CURRENT BLOCK (nM) (7 Hz, Manual Patchclamp)) | IC50 (hNav1.7 [2]; 0.25 Hz, read-out: Nav1.7 IC50 INWARD CURRENT BLOCK (nM) (0.25 Hz, Automated Patchclamp)) | IC50 (hNav1.7 [2]; 7 Hz, read-out: Nav1.7 IC50 INWARD CURRENT BLOCK (nM) (7 Hz, Automated Patchclamp))
NCC1(CC(=O)O)CCCCC1 [Gabapentin] | 320 ± 58 | 562 ± 213 | 486 ± 202 | 77 ± 47 | – | – | – | – | – | – | – | – | – | –
CC(C)C[C@@H](N)C(=O)NC(COc1cc(C(F)(F)F)cc(C(F)(F)F)c1)c1ccccc1 (stereo partly drawn) [Compound 38, (2R)-2-amino-N-(2-(3,5-bis(trifluoromethyl)phenoxy)-1-phenylethyl)-4-methylpentanamide] | – | – | – | – | −0.34 | −11.5 | −15.3 | −33.7 | 436 | 10300 | 5320 | – | – | –
CC(C)C[C@@H](N)C(=O)N[C@@H](C)COc1cc(C(F)(F)F)cc(C(F)(F)F)c1 [Compound 1, (R)-2-amino-N-((S)-1-(3,5-bis(trifluoromethyl)phenoxy)propan-2-yl)-4-methylpentanamide] | – | – | – | – | −0.30 | −8.60 | −6.80 | −20.90 | 568 | 15500 | 2580 | – | – | –
CN[C@H](CC(C)C)C(=O)NCCOc1cc(F)cc(C(F)(F)F)c1 [Compound 16, (R)-N-(2-(3-fluoro-5-(trifluoromethyl)phenoxy)ethyl)-4-methyl-2-(methylamino)pentanamide] | – | – | – | – | −0.11 | −2.80 | −2.60 | −14.70 | 3500 | – | 8120 | 23200 | 15000 | 9620
N[C@@H](c1ccc(Cl)cc1)c1nc2cc(C(F)(F)F)cc(C(F)(F)F)c2[nH]1 [Compound 54, (S)-(4,6-bis(trifluoromethyl)-1H-benzo[d]imidazol-2-yl)(4-chlorophenyl)methanamine] | – | – | – | – | −0.26 | −10 | −8.6 | −27.4 | 312 | – | 2890 | – | – | –
